The source of these data is patent EP4800018A1, “PAN-KRAS INHIBITOR AND USE THEREOF IN MEDICINES” (Betta Pharmaceuticals Co., Ltd., priority 2023, dated 2025).

The test system of assay [1] is KRAS-G12D mutant tumor cells AGS. In words: Cell Proliferation Inhibition Assay (AGS), Cell-titer GLO, 96 h. The conditions noted are these: Homo sapiens, AGS, 96 h, AGS cells, 96 h incubation, Cell-titer GLO; read-out: AGS(G12D). The format is cell-based. The protocol:
KRAS-G12D mutant tumor cells AGS were seeded in low-attachment 96-well plates at a cell density of 1×10^3 cells/well and cultured overnight in a cell culture incubator. […] After incubation at 37°C for 96 h, 50 µL of Cell-titer GLO working solution was added to each well, mixed by shaking, incubated at room temperature for 10 min, and the Luminescence value was read on a multi-function microplate reader. The luminescence data were calculated and converted into inhibition percent. The inhibition percent of cell proliferation was calculated according to the following formula: Inhibition Percent = (MaxValue−MeasuredValue)/(MaxValue−Blank) × 100% [formula] […] Curve fitting was performed using GraphPad Prism software to obtain IC50 values, see Table 1.

The test system of assay [2] is KRAS-G12V mutant tumor cells SW620. In words: Cell Proliferation Inhibition Assay (SW620), Cell-titer GLO, 96 h. As to conditions: Homo sapiens, SW-620, 96 h, SW620 cells, 96 h incubation, Cell-titer GLO; read-out: SW620(G12V). It is filed as cell-based. The protocol: KRAS-G12V mutant tumor cells SW620 were seeded in low-attachment 96-well plates at a cell density of 1×10^3 cells/well and cultured overnight in a cell culture incubator. After the cells adhered, the test compounds were added to the 96-well plates at final concentrations of 10000, 2000, 400, 80, 16, 3.2, 0.64, 0.13, 0.03, 0 nM (final concentration of DMSO was 0.5% for all). After incubation at 37°C for 96 h, 50 µL of Cell-titer GLO working solution was added to each well, mixed by shaking, incubated at room temperature for 10 min, and the Luminescence value was read on a multi-function microplate reader. The luminescence data were calculated and converted into inhibition percent. The inhibition percent of cell proliferation was calculated according to the following formula: Inhibition Percent = (MaxValue−MeasuredValue)/(MaxValue−Blank) × 100% [formula]
("Max Value" comes from the 0.5% DMSO control well, "Blank" comes from the blank control well, and "Measured Value" comes from the compound-treated well).
Curve fitting was performed using GraphPad Prism software to obtain IC50 values, see Table 1.

Take `C[C@@H]1OCCCn2c(c3c4cc(ccc42)-c2csc(n2)C[C@H](NC(=O)[C@H]2C[C@@H]2C(F)F)C(=O)N2CCC[C@H](N2)C(=O)OCC(C)(C)C3)-c2cc(N3CCOC(C)(C)C3)cnc21` [Example 153, (1S,2S)-2-(difluoromethyl)-N-((1^5S,6^3S,4S,Z)-1^2-(2,2-dimethylmorpholino)-1^5,10,10-trimethyl-5 ,7-dioxo-1^8,1^9,6^1,6^2,6^3,6^4,6^5,6^6-octahydro-1^5H,^17H-8-oxa-1(13,15)-pyrido[3',2':7,8][1,5]oxazonino[5,6-a]indola-2(4,2)-thiazola-6(1,3)-pyridazinacycloundecaphane-4-yl)cyclopropane-1-carboxamide]: the IC50 in assay [1] is 1.33 nM; in assay [2] it was 0.28 nM.

For the compound `C[C@@H]1OCCCn2c(c3c4cc(ccc42)-c2csc(n2)C[C@H](NC(=O)[C@H]2C[C@@H]2C(F)F)C(=O)N2CCC[C@H](N2)C(=O)OCC(C)(C)C3)-c2cc(N3C[C@@H]4C[C@H]3CN4C)cnc21` [Example 155, (1S,2S)-2-(difluoromethyl)-N-((1^5S,6^3S,4S,Z)-1^5,10,10-trimethyl-1^2-((1S,4S)-5-methyl-2,5-diazabicyclo[2.2.1]heptan-2-yl)-5,7-dioxo-1^8,1^9,6^1,6^26^3,6^4,6^5,6^6-octahydro-1^5H,1^7H-8-oxa-1(13,15)-pyrido[3',2':7,8][1,5]oxazonino[5,6-a]indola-2(4,2)-thiazola-6(1,3)-pyridazinacycloundecaphane-4-yl)cyclopropane-1-carboxamide], the values for the IC50 in assay [1] and in assay [2] were 1.38 nM and 0.62 nM, respectively.

Consider `C[C@@H]1OCCCn2c(c3c4cc(ccc42)-c2csc(n2)C[C@H](NC(=O)[C@H]2C[C@@H]2C(F)F)C(=O)N2CCC[C@H](N2)C(=O)OCC(C)(C)C3)-c2cc(OC[C@@H]3CCCCN3C)cnc21` [Example 156, (1S,2S)-2-(difluoromethyl)-N-((1^5S,6^3S,4S,Z)-1^5,10,10-trimethyl-1^2-(((S)-1-methylpiperidin-2-yl)methoxy)-5,7-dioxo-1^8,1^9,6^1,6^26^36^4,6^5,6^6-octahydro-1^5H,1^7H-8-oxa-1(13,15)-pyrido[3',2':7,8][1,5]oxazonino[5,6-a]indola-2(4,2)-thiazola-6(1,3)-pyridazinacycloundecaphane-4-yl)cyclopropane-1-carboxamide], for which, in assay [1], the IC50 was 8.27 nM.

With `C[C@@H]1OCCCn2c(c3c4cc(ccc42)-c2csc(n2)C[C@H](NC(=O)[C@H]2C[C@@H]2C(F)F)C(=O)N2CCC[C@H](N2)C(=O)OCC(C)(C)C3)-c2cc(OCCN3CCOCC3)cnc21` [Example 157, (1S,2S)-2-(difluoromethyl)-N-((1^5S,6^3S,4S,Z)-1^5,10,10-trimethyl-1^2-(2-morpholinoethoxy)-5,7-dioxo-1^8,1^9,6^1,6^2,6^3,6^4,6^5,6^6-octahydro-1^5H,1^7H-8-oxa-1(13,15)-pyrido[3',2':7,8][1,5]oxazonino[5,6-a]indola-2(4,2)-thiazola-6(1,3)-pyridazinacycloundecaphane-4-yl)cyclopropane-1-carboxamide], the IC50 in assay [1] was determined as 3.31 nM; in assay [2], 0.58 nM.

In the case of `C[C@@H]1OCCCn2c(c3c4cc(ccc42)-c2csc(n2)C[C@H](NC(=O)[C@H]2C[C@@H]2C(F)F)C(=O)N2CCC[C@H](N2)C(=O)OCC(C)(C)C3)-c2cc(N(C)C3CCN(C)C3)cnc21` (stereo partly drawn) [Example 160, (1S,2S)-2-(difluoromethyl)-N-((1^5S,6^3S,4S,Z)-1^5,10,10-trimethyl-1^2-(methyl(1-methylpyrrolidin-3-yl)amino)-5,7-dioxo-1^8,1^9,6^1,6^2,6^3,6^4,6^5,6^6-octahydro-1^5H,1^7H-8-oxa-1(13,15)-pyrido[3',2':7,8][1,5]oxazonino[5,6-a]indola-2(4,2)-thiazola-6(1,3)-pyridazinacycloundecaphane-4-yl)cycloprop ane-1-carboxamide], the IC50 in assay [1] turned out to be 2.25 nM; in assay [2], 0.98 nM.

As for `CCN1CCN(c2cnc3c(c2)-c2c4c5cc(ccc5n2CCCOC3C)-c2csc(n2)CC(NC(=O)C2C3COCC32)C(=O)N2CCCC(N2)C(=O)OCC(C)(C)C4)CC1` [Example 162, (3R,4r,5S)-N-((1^5S,6^3S,4S,Z)-1^2-(4-ethylpiperazin-1-yl)-1^5,10,10-trimethyl-5,7-dioxo-1^8,1^9,6^1,6^2 ,6^3,6^4,6^5,6^6-octahydro-1^5H,1^7H-8-oxa-1(13,15)-pyrido[3',2':7,8][1,5]oxazonino[5,6-a]indola-2(4, 2)-thiazola-6(1,3)-pyridazinacycloundecaphane-4-yl)tetrahydro-2H-pyran-4-carboxamide], the IC50 in assay [1] was 1.08 nM.

As for `C[C@@H]1OCCCn2c(c3c4cc(ccc42)-c2csc(n2)C[C@H](NC(=O)[C@H]2C[C@@H]2C(F)F)C(=O)N2CCC[C@H](N2)C(=O)OCC(C)(C)C3)-c2cc(N3C[C@@H]4CCN(C)[C@@H]4C3)cnc21` [Example 163, (1S,2S)-2-(difluoromethyl)-N-((1^5S,6^3S,4S,Z)-1^5,10,10-trimethyl-1^2-((3aS,6aS)-1-methylhexahydropyrrolo[3,4-b]pyrrol-5(1H)-yl)-5,7-dioxo-1^8,1^9,6^1,6^2,6^3,6^4,6^5,6^6-octahydro-1^5H,1^7H-8-oxa-1(1 3,15)-pyrido[3',2':7,8][1,5]oxazonino[5,6-a]indola-2(4,2)-thiazola-6(1,3)-pyridazinacycloundecaphane-4-yl)cyclopropane-1-carboxamide], the IC50 in assay [1] came to 1.44 nM; in assay [2], 0.2 nM.

With `C[C@@H]1[C@H](C)[C@H]1C(=O)N[C@H]1Cc2nc(cs2)-c2ccc3c(c2)c(c2n3CCCO[C@@H](C)c3ncc(N4C[C@@H](C)O[C@@H](C)C4)cc3-2)CC(C)(C)COC(=O)[C@@H]2CCCN(N2)C1=O` [Example 166, (1r,2R,3S)-N-((1^5S,6^3S,4S,Z)-1^2-((2S,6R)-2,6-dimethylmorpholino)-1^5,10,10-trimethyl-5,7-dioxo-1^8,1^9,6^1,6^2,6^3,6^4,6^5,6^6-octahydro-1^5H,1^7H-8-oxa-1(13,15)-pyrido[3',2':7,8][1,5]oxazonino[5,6-a]indola-2(4,2)-thiazola-6(1,3)-pyridazinacycloundecaphane-4-yl)-2,3-dimethylcyclopropane-1-ca rboxamide], the IC50 in assay [1] came to 0.36 nM; in assay [2], 0.14 nM.

With `C[C@@H]1[C@H](C)[C@H]1C(=O)N[C@H]1Cc2nc(cs2)-c2ccc3c(c2)c(c2n3CCCO[C@@H](C)c3ncc(CN4CCOCC4)cc3-2)CC(C)(C)COC(=O)[C@@H]2CCCN(N2)C1=O` [Example 194, (1r,2R,3S)-2,3-dimethyl-N-((1^5S,6^3S,4S,Z)-1^5,10,10-trimethyl-1^2-(morpholinomethyl)-5,7-dioxo-1^8,1^9,6^1,6^2,6^3,6^4,6^5,6^6-octahydro-1^5H,1^7H-8-oxa-1(13,15)-pyrido[3',2':7,8][1,5]oxazonino[5,6-a]indola-2(4,2)-thiazola-6(1,3)-pyridazinacycloundecaphane-4-yl)cyclopropane-1-carboxamide], the IC50 was 3 nM in assay [1] and 1.4 nM in assay [2].

Turning to `CC1OCCCn2c(c3c4cc(ccc42)-c2csc(n2)CC(NC(=O)C2C(C)C2C)C(=O)N2NC(C(=O)OCC(C)(C)C3)C3CC2C3)-c2cc(N3CCN(C)CC3)nnc21` [Example 195, (1r,2R,3S)-2,3-dimethyl-N-((1^5S,6^4S,4S,Z)-1^5,10,10-trimethyl-1^2-(4-methylpiperazin-1-yl)-5,7-dioxo-1^8,1^9-dihydro-1^5H,1^7H-8-oxa-6^2,6^3-diaza-1(13,15)-pyridazino[4',3':7,8][1,5]oxazonino[5,6-a]indola-2(4,2)-thiazola-6(2,4)-bicyclo[3.1.1]heptanacycloundecaphane-4-yl)cyclopropane-1-car boxamide], the IC50 in assay [1] amounted to 0.6 nM; in assay [2], 0.06 nM.

On to `CC1OCCCn2c(c3c4cc(ccc42)-c2csc(n2)CC(NC(=O)C2COC2)C(=O)N2NC(C(=O)OCC(C)(C)C3)C3CC2C3)-c2cc(N3CCN(C)CC3)cnc21` [Example 199, N-((1^5S,6^4S,4S,Z)-1^5,10,10-trimethyl-1^2-(4-methylpiperazin-1-yl)-5,7-dioxo-1^8,1^9-dihydro-1^5H, 1 ^7H-8-oxa-6^2,6^3-diaza-1(13,15)-pyrido[3',2':7,8][1,5]oxazonino[5,6-a]indola-2(4,2)-thiazola-6(2,4)-bicyclo[3.1.1]heptanacycloundecaphane-4-yl)oxetane-3-carboxamide], for which the figures for the IC50 in assay [1] and in assay [2] were 39 nM and 4.1 nM, respectively.
